Reference: patent US20080145431A1, “Medicinal Composition and Process for Producing the Same” (priority 2005, published 2008)
Read-outs that look alike come from different tables or passages of the source.

Legend:
[1] = Saturation solubility in water; format: physicochemical
[2] = cited from earlier work

Structure (SMILES)	Solubility in water under substantially physiological conditions ([1]; pH 5 to 7)	solubility ([1]; water, process liquid temperature of 17° C.)	Saturation solubility in water ([2]; 22° C.)	Saturation solubility in water ([2]; 37° C.)
NS(=O)(=O)c1ccc(S(=O)(=O)Nc2cccc3c(Cl)c[nH]c23)cc1 [Drug A, N-(3-chloro-7-indolyl)-1,4-benzenedisulfonamide]	practically insoluble	≤ 100 µg/mL		
COc1ccc(Cl)cc1C(=O)NCCc1ccc(S(=O)(=O)NC(=O)NC2CCCCC2)cc1 [Glibenclamide]			5.9 µg/mL	9.9 µg/mL
